The values that follow are results of earlier work, collected in patent US8637073B2 (priority 2003, dated 2014).

For this data set the following is noted: maintenance of opioid-dependent pregnant women; Eder et al. 2001.

Turning to `CCC(=O)C(CC(C)N(C)C)(c1ccccc1)c1ccccc1` (stereo not shown) [methadone], the “neonates in which neonatal abstinence syndrome (NAS) is observed” value was 60-80%.
